Entries after “also recorded” stand apart in the source; their conditions may differ. Where a name gives a salt, the structure may show the parent alone.
What was measured:
quinpirole-injected rats [1] = experiment: Elevated plus maze (EPM) test, anxiety-like behavior, quinpirole OCD model; type: in vivo, Wistar rats; details: fluoxetine 10 mg/kg peroral 6 weeks with quinpirole
From the text: (§1) Experimental design was as given in Ref 12, incorporated herein in its entirety. The rats were randomly distributed into 5 different groups, with 6-8 rats per group (FIG. 1). Group 1, referred to as the “Vehicle” group, received the vehicle for a duration of 8 weeks. Group 2, denoted as the “Probiotic” group, received the peroral (PO) multistrain probiotic at a dose of 1× 10^10 CFU per rat for 8 weeks.

quinpirole-injected rats [2] = experiment: Marble burying test, quinpirole OCD model; type: in vivo, Wistar rats; details: 10 min; quinpirole vs. control; quinpirole effect among rats that received probiotic or fluoxetine
From the text: as §1

quinpirole-injected rats [3] = experiment: Self-grooming test, quinpirole OCD model; type: in vivo, Wistar rats; details: 10 min; quinpirole vs. vehicle; treatments vs. quinpirole group
From the text: as §1

quinpirole-injected rats [4] = experiment: Hole board test, quinpirole OCD model; type: in vivo, Wistar rats; details: 5-minute session; quinpirole vs. vehicle; treatments in quinpirole rats
From the text: as §1

nNOS = experiment: Western blot analysis of nNOS in the frontal cortex; type: in vivo, rat; details: quinpirole vs. vehicle, treatments vs. quinpirole group
From the text: as §1
Radioimmunoprecipitation Assay (RIPA) buffer was used to homogenize the frontal cortex part of the rat brain and then resolved using sodium dodecyl sulfate-polyacrylamide gel electrophoresis (SDS-PAGE). The proteins were then transferred to a nitrocellulose membrane, blocked with 5% bovine serum albumin, and incubated with the primary antibody anti-NOS1 (sc-5302, 1:1000 dilution) overnight at 4° C., followed by incubation with horseradish peroxidase-conjugate secondary antibody at RT. The required proteins were then detected by using an ECL solution.

TNF-α = experiment: Real-time PCR of cytokine mRNA in the amygdala: TNF-α; type: in vivo, rat; details: quinpirole vs. vehicle, treatments vs. quinpirole group
Description: as §1
(§2) RT-PCR was performed to analyze the impact of a multistrain probiotic on cytokines mRNA expression (Ref 20, Rahman et al). Briefly, NucleoSpin® RNA isolation kit (#740955.50, DSS Takara Bio India Private Ltd) was used to extract RNA from the rat brain's amygdala. PrimeScript™ 1st strand cDNA synthesis kit (#6110A, DSS Takara Bio India Private Ltd) was used to process these RNA samples to cDNA. The 10 μL reaction mixture was prepared by mixing 5 μL of SYBR Green, 2 μL of the PCR primer (1 μL reverse+1 μL forward) (GCC Biotech, India, Private Ltd.). 1 μL of diluted cDNA template and 2 μL nuclease-free water. For each PCR test, the threshold cycle numbers were averaged across all samples. Using Δ/Δ Ct technique, the relative mRNA expression was calculated. The primers were designed (Table 6) using the software tools NCBI BLAST.

IL-6 = experiment: Real-time PCR of cytokine mRNA in the amygdala: IL-6; type: in vivo, rat; details: quinpirole vs. vehicle, treatments vs. quinpirole group
Description: as §1, §2

CRP = experiment: Real-time PCR of cytokine mRNA in the amygdala: CRP; type: in vivo, rat; details: quinpirole vs. vehicle, treatments vs. quinpirole group
Description: as §1, §2

SCFAs = experiment: Short-chain fatty acids (SCFAs) in fecal samples by GC-FID; type: in vivo, rat; details: treatments given in quinpirole rats, compared to OCD, unit from Table 7
From the text: as §1
The gas chromatography-flame ionization detection (GC-FID) was used to evaluate the effect of OCD on bacterial metabolites as described earlier in our publications (Ref 22, Rahman et al & Ref 23, Satti et al). Briefly, supernatant acidified with HCL (5 M) and then extracted in diethyl ether to estimate the SCFAs. The acetate, propionate, and butyrate levels were estimated by loading the known amount of each SCFA.

colon = experiment: Colon histopathology (H&E and alcian blue-PAS staining); type: in vivo, rat; details: quinpirole vs. control, treatments vs. quinpirole-recipient rats
Description: as §1
To examine the gut permeability, H&E and alcian-blue PAS staining were performed. The method is already described in our publications (Ref 20, 21, and 22), incorporated herein in its entirety. Briefly, sections were processed for deparaffinization with xylene, rehydration with alcohol, and then stained with H&E and alcian blue-PAS agents. Finally, slides were mounted with (DPX) followed by observations under a microscope (Leica-ICC50 W).

| SMILES | open-arms activity (quinpirole-injected rats [1]) | number of marbles buried (increase by quinpirole) (quinpirole-injected rats [2]) | self-grooming activity (number of grooming episodes, score) (quinpirole-injected rats [3]) | head dipping activity (quinpirole-injected rats [4]) | expression of nNOS (nNOS) | mRNA expression of TNF-α (TNF-α) | mRNA expression of IL-6 (IL-6) | mRNA expression of CRP (CRP) | butyrate level (SCFAs) | propionate level (SCFAs) | number of mature goblet cells (colon) | villus height/crypt depth ratio (colon) |
| --- | --- | --- | --- | --- | --- | --- | --- | --- | --- | --- | --- | --- |
| CNCCC(Oc1ccc(C(F)(F)F)cc1)c1ccccc1 (stereo not shown) [Fluoxetine, fluoxetine] | improved | nonsignificant | did not notice any change | less response | significantly reduced; also recorded: decreased | prevents | prevents | prevents | 3.39 ± 0.32 µg/mL | 2.99 ± 0.55 µg/mL | significantly increased | significantly increased |
| CCCN1CCC[C@@H]2Cc3n[nH]cc3C[C@H]21 [Quinpirole, (−)-Quinpirole hydrochloride] | – | – | – | – | – | – | – | significant increase | – | – | – | – |
